# Test results: patent publication US20260315434A1, “USE OF GUAIACOL SESQUITERPENE LACTONE DERIVATIVES” (NANJING UNIVERSITY OF CHINESE MEDICINE, priority 2023, published 2026)
# Marks after values point to notes of the source that are not given here.
# Legend:
# [1] = tested on: renal injury markers (Ngal, Havcr1) in kidney tissue; assay: Folic acid-induced acute kidney injury, renal injury marker mRNA; format: in vivo, C57BL/6 mice; design: scale not given here; details: folic acid acute model
# Experimental: Except for the normal group, all other mice were administered folic acid (250 mg/kg) dissolved in 0.9% NaHCO3 solution via intraperitoneal injection to establish an acute kidney injury model.
# The blood was allowed to stand at room temperature for 2 hours, then centrifuged at 3000 rpm for 20 minutes. Serum was aspirated, aliquoted, and stored at −70° C. for future use. Following blood collection, euthanize mice by cervical dislocation. Perform laparotomy to remove kidneys, dissect out perirenal fat and capsules. […] Paraffin-embedded specimens undergo HE staining; remaining tissue is stored at −70° C. for future use.
# [2] = tested on: inflammatory factors (TNF, IL-6, IL-1) in renal tissue; assay: Lupus nephritis, renal inflammatory factor mRNA; format: in vivo, MRL/lpr mice; details: 8 weeks
# Experimental: Experimental animals: MRI/MpJ and MRL/lpr mice, female, 10 weeks old, purchased from GemPharmatech LLC. Production license number: SCXK(Su)2023-0009. […] They were acclimated for 7 days before use in experiments.
# Oral administration was performed continuously for 8 weeks.
# Allow blood to stand at room temperature for 2 hours, then centrifuge at 3000 rpm for 20 minutes. Aspirate the serum, aliquot it, and store at −70° C. for future use. After blood collection, euthanize mice by cervical dislocation. Open the abdominal cavity, remove kidneys, and dissect out perirenal fat and capsules. […] Store remaining tissues at −70° C. for future use.
# [3] = tested on: renal injury markers (Kim-1, Ngal) in kidney tissue; assay: Diabetic nephropathy, renal injury marker mRNA; format: in vivo, C57/BL6J mice; details: 8 weeks
# Experimental: (§1) Experimental animals: C57/BL6J mice, male, 12 weeks old, purchased from GemPharmatech LLC. Production license number: SCXK(Su)2023-0009. […] Animals were acclimated for 7 days before use in experiments.
# (§2) Administer streptozotocin (STZ, 50 mg/kg) via intraperitoneal injection for 5 consecutive days. After 72 hours, select mice with fasting blood glucose levels exceeding 16.7 mmol/L as model mice. […] Model mice were fed a high-fat diet (HFD) providing 60% of energy from fat for 8 weeks. After 8 weeks, gavage administration commenced.
# (§3) Specimen Collection: One hour after the last drug administration, enucleate the eyeball to collect blood. Allow blood to stand at room temperature for 2 hours, then centrifuge at 3000 rpm for 20 minutes. Aspirate the serum, aliquot it, and store at −70° C. for future use. After blood collection, euthanize the mice by cervical dislocation. Open the abdominal cavity, remove the kidneys, and dissect away the perirenal fat and capsule. Store the tissue at −70° C. for future use.
# [4] = tested on: inflammatory factors (MCP-1, TNF-α) in renal tissue; assay: Diabetic nephropathy, renal inflammatory factor mRNA; format: in vivo, C57/BL6J mice; design: Mcp-1 mRNA expression, kidney / Tnf-α mRNA expression, kidney / IL-6 mRNA expression, kidney: unit not given here; details: 8 weeks
# Experimental: as §1, §2, §3
# [5] = tested on: Hepa1-6 cells; assay: Antitumor effect in Hepa1-6 mouse hepatocellular carcinoma subcutaneous xenograft model; format: in vivo, C57BL/6 mice
# [6] = tested on: T cells; assay: Proportion of T cells in tumor and spleen of H22 xenograft mice (flow cytometry); format: in vivo, BALB/c mice; details: for Spleen T cells (%) / Tumor T cells (%): 40 μmol/kg/day, oral, 2 weeks, flow cytometry
# Experimental: Once all tumors were dissected, nail-sized tumor pieces were transferred to 1.5 mL Eppendorf tubes and minced with scissors. Transfer the minced tumor tissue suspension to a 15 mL centrifuge tube containing 3-5 mL of digestive enzymes (Collagenase IV 1 mg/mL, Hyaluronidase 1 mg/mL, DNase 120 U/mL). Incubate at 37° C. on a shaking incubator at 200 rpm for 1 hour. After digestion, pass the mixture through a 200-mesh sieve to obtain the tumor cell suspension. Centrifuge the resulting tumor suspension at 1600 rpm for 5 min, aspirate the supernatant, resuspend cells in 1 mL of 1×PBS per tube. Transfer the cell suspension to a 1.5 mL Eppendorf tube, centrifuge at 1600 rpm for 5 min, remove the supernatant, resuspend cells in 100 μL of 1×PBS per tube, add 1 μL of dead/live dye to each tube, mix thoroughly, and incubate at room temperature in the dark for 15 min. […] Position the spleen on a 200-mesh cell strainer. Gently press the spleen using a 10 mL syringe needle. […] Transfer the splenocyte suspension into a 15 mL centrifuge tube. Centrifuge at 1600 rpm for 5 min to collect cells. Wash once with 1×PBS. Add 3 mL red blood cell lysis buffer (diluted with ddH2O) to each tube and incubate for 5 min. After lysis, add 10 mL 1×PBS to each tube to terminate lysis. Centrifuge at 1600 rpm for 5 min. Add 1 mL 1×PBS to each 15 mL centrifuge tube, transfer to 1.5 mL EP tubes, and centrifuge at 1600 rpm for 5 min. Add 1×PBS to each tube containing stained tumor cells and lysed spleen cells for one wash, centrifuge at 1600 rpm for 5 min, and remove the supernatant. Resuspend tumor cells and spleen cells separately in 100 μL 1×PBS. Add 1 μL FcX™ antibody to each tube and incubate at room temperature in the dark for 10 min. After incubation, sequentially add 1 μL each of CD45, CD3, and CD8 antibodies to each tube. Incubate at 4° C. in the dark for 30 min. After staining, wash once with 1 mL PBS. Centrifuge at 1600 rpm for 5 min. Discard the supernatant. Resuspend cells in 300 μL 1×PBS. Filter the cell suspension into a flow cytometry tube and proceed to instrument analysis.
# [7] = tested on: inflammatory cytokines (IL-1β, IL-6) in lung tissue; assay: LPS-induced acute lung injury, inflammatory cytokines by ELISA; format: in vivo, C57BL/6 mice; details: for IL-1β: LPS 2411.32; for IL-6: LPS 3520.94
# Experimental: After a 7-day acclimatization period, mice were used for subsequent experiments.
# The abdomen was opened, and the lungs were removed. They were rinsed twice with pre-chilled PBS. […] The remaining tissue was stored at −70° C. for future use.
# Data Statistics: All data are expressed as means S.E.M. Statistical differences between groups were analyzed using one-way ANOVA and t-tests in SPSS software. P values less than 0.05 were considered statistically significant.
# [8] = tested on: inflammatory cytokines (TNF, IL-6, IL-1) in lung tissue; assay: LPS-induced sepsis, lung inflammatory factor mRNA (Q-PCR); details: for Il1 mRNA expression, lung: LPS 19.01; for Il6 mRNA expression, lung: LPS 20.34; for Tnf mRNA expression, lung: Normal = 1.00, LPS 10.92
# Description: They were acclimated for 7 days before experimentation.
# The normal and model groups received equal volumes of solvent (0.5% CMC-Na) via oral gavage.
# Specimen Collection: One hour after the final drug administration, mice were euthanized by cervical dislocation. The abdominal cavity was opened, and the lungs, liver, and kidneys were removed. These organs were rinsed twice with pre-chilled PBS. Tissue samples were excised from the mouse lungs, left hepatic lobe, and kidneys. […] Remaining tissues were stored at −70° C. for future use.
# Accurately weigh 20 mg of kidney, lung, and liver tissue. Rinse with pre-chilled PBS solution, cut into small pieces using ophthalmic scissors, and place into a glass homogenizer. Add 1 mL of Trizol reagent and grind to prepare tissue homogenate. Transfer the homogenate to a RNAse-free 1.5 mL EP tube and lyse on ice for 10 min. Add 200 μL chloroform, vortex vigorously, and let stand on ice for 3-5 min. Centrifuge at 12,000 rpm and 4° C. for 15 min. Carefully transfer the supernatant to a new RNAse-free 1.5 mL EP tube. Add an equal volume of pre-chilled isopropanol, incubate on ice for 30 min, then centrifuge at 12,000 rpm and 4° C. for 10 min. Discard the supernatant. […] Subsequently, dissolve the pellet in 10 μL DEPC-treated water. Dilute 1 μL of the total RNA solution 100-fold and measure the OD values at 260 nm and 280 nm using a full-wavelength microplate reader.
# Following the method described in the kit manual, subsequent experiments were conducted using a 20 μL reverse transcription reaction system:
# Primers were designed based on the nucleotide sequence of the mouse in GenBank and synthesized.
# Perform subsequent experiments using a 20 μL reaction system according to the kit instructions:
# After adding the above reagents to micro reaction tubes, seal them with the cap and place them in the Q-PCR instrument. Set the parameters according to the following reaction conditions to perform the amplification experiment.
# Record the threshold cycle (Ct) values for each group and perform calculation and analysis using the 2^−ΔΔCt method (setting the expression level of the reference gene Gapdh as 1 to correct the expression levels of the target genes).
# Data Statistics: All data are presented as Means±S.E.M. Analysis of variance (ANOVA) was performed to assess the significance of differences. Groups showing significant differences in ANOVA were further compared using one-way ANOVA and Dunnett's test. A P-value <0.05 was considered statistically significant.
# [9] = 40 μmol/kg/d oral, 2 weeks, solvent 0.92 ± 1.41
# [10] = compared with solvent control, result in words
Compound,"Havcr1 mRNA expression, kidney ([1]; 0.1 mg/kg oral)","Ngal mRNA expression, kidney ([1]; 0.1 mg/kg oral)","Il1 mRNA expression, kidney ([2]; 30 mg/kg oral)","Il6 mRNA expression, kidney ([2]; 30 mg/kg oral)","Tnf mRNA expression, kidney ([2]; 30 mg/kg oral)","Kim-1 mRNA expression, kidney ([3]; 1 mg/kg gavage)","Ngal mRNA expression, kidney ([3]; 1 mg/kg gavage)","Kim-1 mRNA expression, kidney ([3]; 10 mg/kg gavage)","Ngal mRNA expression, kidney ([3]; 10 mg/kg gavage)","Mcp-1 mRNA expression, kidney ([4]; 1 mg/kg gavage)","Tnf-α mRNA expression, kidney ([4]; 1 mg/kg gavage)","Mcp-1 mRNA expression, kidney ([4]; 10 mg/kg gavage)","Tnf-α mRNA expression, kidney ([4]; 10 mg/kg gavage)","Tumor Inhibition Rate ([5]; 40 μmol/kg/d oral, 2 weeks)","Tumor weight [5, 9]",Spleen T cells (%) [6],Tumor T cells (%) [6],"proportion of T cells in tumor tissues and spleens [6, 10]",IL-1β ([7]; 0.1 mg/kg),IL-6 ([7]; 0.1 mg/kg),also measured
CC1=C2CC[C@@](C)(OC(=O)N3CCCC3)[C@@H]2[C@H]2OC(=O)[C@@H](CN3CCCC3)[C@@H]2CC1 [Compound 103],452.14 ± 212.69,148.49 ± 116.61,4.11 ± 0.41,1.83 ± 0.91,4.10 ± 0.67,0.98 ± 0.41,2.34 ± 0.39,0.75 ± 0.24,2.08 ± 0.34,6.78 ± 1.70,3.14 ± 0.57,5.67 ± 2.31,2.15 ± 0.13,96.22%,0.03 ± 0.06 g,34.22 ± 4.88 %,27.62 ± 5.12 %,significantly increased,–,–,"Havcr1 mRNA expression, kidney ([1]; 1 mg/kg oral): 415.10 ± 120.96; Ngal mRNA expression, kidney ([1]; 1 mg/kg oral): 85.57 ± 27.78; Havcr1 mRNA expression, kidney ([1]; 10 mg/kg oral): 331.69 ± 98.67; Ngal mRNA expression, kidney ([1]; 10 mg/kg oral): 69.68 ± 25.32; Il1 mRNA expression, kidney ([2]; 10 mg/kg, oral): 6.78 ± 0.96; Il6 mRNA expression, kidney ([2]; 10 mg/kg, oral): 2.47 ± 0.53; Tnf mRNA expression, kidney ([2]; 10 mg/kg, oral): 7.24 ± 3.10; IL-1 β mRNA expression, kidney ([4]; 1 mg/kg gavage): 1.00 ± 0.25 ^; IL-6 mRNA expression, kidney ([4]; 1 mg/kg gavage): 4.47 ± 1.06; IL-1 β mRNA expression, kidney ([4]; 10 mg/kg gavage): 0.96 ± 0.18**^; IL-6 mRNA expression, kidney ([4]; 10 mg/kg gavage): 3.97 ± 0.94"
CC1=C2CC[C@@](C)(OC(=O)N3CCCCC3)[C@@H]2[C@H]2OC(=O)[C@@H](CN(C)C)[C@@H]2CC1 [Compound 102],–,–,–,–,–,–,–,–,–,–,–,–,–,96.67%,0.03 ± 0.04 g,31.69 ± 6.44 %,20.86 ± 4.15 %,significantly increased,–,–,–
CN(C)C[C@@H]1C(=O)O[C@H]2[C@H]1CC[C@@]1(C)C[C@]13CC[C@@](C)(O)[C@H]23 [Compound 20],–,–,6.01 ± 0.99,11.80 ± 1.90,4.04 ± 0.33,1.68 ± 0.17,1.38 ± 0.17,0.64 ± 0.10,0.96 ± 0.13,2.33 ± 0.20,1.38 ± 0.17,1.40 ± 0.22,0.96 ± 0.13,–,–,37.19 ± 6.99 %,29.44 ± 6.07 %,significantly increased,1570.02 ± 62.95 pg/mL,2348.32 ± 202.75 pg/mL,"IL-1β ([7]; 1 mg/kg): 708.74 ± 38.40 pg/mL; IL-6 ([7]; 1 mg/kg): 1172.00 ± 240.50 pg/mL; Havcr1 mRNA expression, kidney ([1]; 1 mg/kg oral, 1 mg/kg): 62.86 ± 12.20; Ngal mRNA expression, kidney ([1]; 1 mg/kg oral, 1 mg/kg): 13.05 ± 1.82; Il1 mRNA expression, lung ([8]; 1 mg/kg oral): 5.22 ± 0.90; Il6 mRNA expression, lung ([8]; 1 mg/kg oral): 7.16 ± 0.71; Tnf mRNA expression, lung ([8]; 1 mg/kg oral): 6.52 ± 0.29"
CN(C)C[C@@H]1C(=O)O[C@H]2[C@H]1CC[C@@]1(C)C[C@]13CC[C@@](C)(O)[C@H]23 [Compound 21],170.08 ± 33.10,25.75 ± 2.80,–,–,–,–,–,–,–,–,–,–,–,–,–,–,–,–,1623.55 ± 32.64 pg/mL,2585.26 ± 273.50 pg/mL,"IL-1β ([7]; 1 mg/kg): 888.28 ± 35.20 pg/mL; IL-6 ([7]; 1 mg/kg): 1288.32 ± 123.80 pg/mL; Havcr1 mRNA expression, kidney ([1]; 1 mg/kg oral, 1 mg/kg): 83.11 ± 16.85; Ngal mRNA expression, kidney ([1]; 1 mg/kg oral, 1 mg/kg): 13.08 ± 2.41; Il1 mRNA expression, lung ([8]; 0.1 mg/kg oral): 13.30 ± 0.88; Il6 mRNA expression, lung ([8]; 0.1 mg/kg oral): 18.40 ± 3.16; Tnf mRNA expression, lung ([8]; 0.1 mg/kg oral): 8.79 ± 1.18; Il1 mRNA expression, lung ([8]; 1 mg/kg oral): 6.79 ± 0.72; Il6 mRNA expression, lung ([8]; 1 mg/kg oral): 9.10 ± 1.20; Tnf mRNA expression, lung ([8]; 1 mg/kg oral): 8.67 ± 1.51"
"C=C1C(=O)O[C@@H]2[C@H]3C(C)=CC[C@@]34O[C@@]4(C)CC[C@@H]12 [Arg, Arglabin, reference compound]",–,–,–,–,–,–,–,–,–,–,–,–,–,–,–,–,–,–,–,–,"Tumor weight ([5]; mouse, in vivo, po): 0.04 ± 0.03 g; proportion of T cells in tumor tissues and spleens ([6]; mouse, in vivo): significantly increased"
